Laboratory results published in article PMC9046208, “Foldamers reveal and validate therapeutic targets associated with toxic α-synuclein self-assembly” (Nature Communications, 2022).

What was measured:
[1] = test system: primary rat hippocampal neurons; assay: LDH release assay, primary rat hippocampal neurons; type: cell-based; settings: PD + SK-129 PMCA sample, 21 days; PD sample ~8-fold higher than control
Protocol: The rat embryos (both male and female) at embryonic day 18 were used to prepare the primary neurons according to previously published protocol. After removing all the meninges, the hippocampi were isolated from the fetal rat brain and kept in the dissection solution (1x HBSS, 10 mM HEPES buffer, 5 µg/mL Gentamicin, pH 7.3, Thermo Fisher Scientific, Waltham, MA). The hippocampi were minced and treated in the dissection solution containing 20 U/ml Papain (Worthington Biochemical Corp., Lakewood, NJ) and triturated in 50 µg/ml Dnase I (Sigma-Aldrich, St.Louis, MO). The isolated cells were plated on 1 mg/mL Poly-L-Lysine (Sigma-Aldrich, St.Louis, MO) coated μ-slide eight-well plate (Ibidi, Munich, Germany) at 200,000 cells/mL in neuron plating medium, which includes Minimum Essential Media (MEM)(Thermo Fisher Scientific, Waltham, MA) supplemented with 5% FBS (Thermo Fisher Scientific, Waltham, MA) and glucose (Sigma-Aldrich, St.Louis, MO). […]
The LDH assay was performed on the primary neurons treated with various conditions and incubated for 21 DIV. The release of LDH was measured using a Cytotox 96 Non-Radioactive Cytotoxicity Assay kit (Promega, Madison, WI) by following the instructions provided by the manufacturers. […] The absorbance of the media in the wells was measured at 490 nm using a 96-well plate reader.

[2] = test system: HEK cells expressing αS-A53T-YFP; assay: Intracellular seed catalyzed aggregation in HEK cells, inclusion count; type: cell-based; settings: 10 µM SK-129 added 8 h after αS seeds (0.125 µM)
Protocol: The HEK cells (200,000 cells/mL) were plated in an µ-slide eight-well plate (300 µL/well) and incubated at 37 °C and 5% CO2 (g), and allowed to adhere to the plate for 24 h in media (DMEM, 10% FBS, 1% pen/strep). […] The HEK cells were incubated with αS fibrils for 8 h followed by the addition of 10 µM SK-129 for 300 µL media in each well (0.3 µL of 10 mM stock solution in DMSO, total DMSO = 0.1% v,v). The eight-well plate was incubated for a total of 24 h. The eight-well plate after 24 h was used for both confocal imaging and for the cytotoxicity measurements using MTT assay (2 wells/condition, 300 µL/well). In each experiment, 2 wells were used for each condition, including control (only media and DMSO), fibrils, and fibrils+SK-129.
The HEK cells in the eight-well plate were treated with a Hoechst 33342 dye solution for 1 h by adding 3 µL to each well (from 1 mg/ml solution in 1x PBS buffer). The Hoechst 33342 solution was carefully mixed with media by pipetting up and down for a few times. […] The counting of inclusions was carried out for six different experiments and for each experiment, 100 cells were counted from at least four different locations from the eight-well plate. The cells were counted manually by counting the number of Hoechst 33342 dye-stained nuclei in the cells. The inclusions in the cells were counted manually at different locations in the eight-well plate. […]

[3] = target: T1, αS2 seed-catalyzed aggregation (Homo sapiens, UniProt P37840, DEL15-23); assay: Seed-catalyzed ThT aggregation assay (10% WT αS seeds), αS2; type: biochemical; settings: αS2, equimolar ratio
T1 construct: made in house
Protocol: Seed-catalyzed αS aggregation assay was performed similarly to a previously described protocol. Briefly, 100 μM monomeric WT αS solution (200 μL, in 1x PBS buffer) was placed into a ThermoMixer (Eppendorf, Hamberg, Germany) and shook for five days at a rate of […] and 37 °C. The solution was sonicated for 10 min and used as αS seeds. The seed-catalyzed aggregation of WT αS/ αS variants was performed by adding αS seeds (10% seeds, αS in monomeric concentration, v/v) into 140 μL of fresh 100 μM WT αS/ αS variants solution and aggregation was started with constant shaking at a rate of […] and 37 °C. The aggregation of proteins was monitored at the indicated times (See the main manuscript) using the above-mentioned method.
The ThT aggregation assay for each protein (WT αS and αS variants) in the presence of SK-129 was carried out the above-mentioned method. SK-129 (from 10 mM stock solution in DMSO) was added at an equimolar ratio (1% DMSO, v/v) to the proteins at the start of the aggregation experiment. The concentration of DMSO was kept constant (1%, v/v) in protein (WT αS and αS variants), control, and protein+molecule solutions. The kinetic profiles of protein aggregation were processed using OriginPro software (Version 9.1). Kinetic curves were fit using a built-in sigmoidal fit in the OriginLab.

effect on seed-catalyzed aggregation [3]: wholly suppressed
Compound: COC(=O)c1cc(OCC(=O)O)c2cccc(NC(=O)c3cc(OC(C)C)c4cccc(NC(=O)c5cc(OCC(=O)O)c6cccc(NC(=O)c7cc(OC(C)C)c8cccc([N+](=O)[O-])c8n7)c6n5)c4n3)c2n1 [SK-129]
neurotoxicity (LDH release) [1]: did not observe any significant neurotoxicity | number of inclusions ([2]; total 24 h, without SK-129 ~19): 1–2 inclusions/100 cells | number of inclusions ([2]; up to 4 days): 2–3 inclusions/100 cells
